In patent publication US5266600A (priority 1992, dated 1993):
pIC50: −log10 of the molar value. In brackets after ≈: the same amount, converted by molar mass. Entries after “also recorded” stand apart in the source; their conditions may differ. Read-outs that look alike come from different tables or passages of the source.

Tests used:
[1] = tested on: tubulin (3XMTP); assay: Tubulin polymerization assay using thrice-cycled microtubule protein (3XMTP), spectrophotometric; assay type: biochemical, calf
Experimental: Briefly, tubulin was purified from calf brain extracts by three cycles of polymerization at 35° C. in the presence of 1 mM GTP+2.5 mM ATP, and depolymerization at 4° C. in PM buffer pH 6.6 (0.1 M PIPES, […]) containing various concentrations of glycerol as described previously (Williams R. C. and J. C. Lee 1982 Methods in Enzymology 85: pp. 376-385). The tubulin polymerization assay was carried out using 3XMTP in PM buffer containing 0.4 M of glycerol in the presence of test-compound. The polymerization was quantitated by Shimadzu spectrophotometer (Model No. UV 2100U) at 350 nm. Effect of compound on the kinetics of tubulin polymerization was followed for 20 minutes using taxol as a positive control and DMSO as a negative control. Compound in PM buffer +0.4 M glycerol (no MTP) served as buffer (negative) controls.

[2] = tested on: tubulin bundling in human colon cells; assay: Immunofluorescence study of tubulin bundling in human colon cells; assay type: cell-based
[3] = tested on: HTLV-III (human T cell lymphotropic virus type III); assay: Inhibition of HTLV-III infection in MT-4 cells (MTT); assay type: cell-based; conditions: for EC50: HTLV-III infected MT-4 cells, 5 days, MTT
Experimental: Human T cell lymphotropic virus type III (HTLV-III)/lymphadenopathy-associated virus is the etiologic agent of the acquired immune deficiency syndrome (AIDS) and AIDS-related complex. […] (Nakashima, H. et al., Antimicrobial Agents & Chemotherapy, 30, pp 933-937, 1986).
An HTLV type I-Carrying cell line, MT-4, was maintained in RPMI 1640 medium supplemented with 10% fetal calf serum, 100 IU of penicillin G per ml and 100 μg of streptomycin per ml at 37° C. in a CO2 incubator. HTLV-III8 was obtained from the supernatant of the Molt-4/HTLV-III8 culture. The titer of this virus preparation was 3.0×10^5 PFU/ml. MT-4 cells were infected with 0.01 MOI of HTLV-III8. The infected cells resuspended in fresh medium were mixed with a test sample solution (or medium itself for control) to give 2.5×10^4 cells in a 200 μl volume and incubated at 37° C. for 5 days. The surviving cells were measured by the MTT (3-(4,5-dimethylthiazol-2-yl)-2,5-diphenyltetrazolium bromide) method (R. Pauwels et al., J. Virol Methods, 20, pp 309-321, 1988). [formula]
Fifty percent effective concentration (EC50) was obtained from the inhibition rates.

[4] = tested on: tubulin (3XMTP); assay: Electron microscopic observation of microtubule assembly in 3XMTP; assay type: biochemical, calf; conditions: 100 μM
[5] = Cytotoxicity in CEM-SS cells; assay type: cell-based; conditions: human
[6] = tested on: syncytium formation between HIV gp-120 expressing BSC-1 cells and HeLa-T4 (CD4) cells; assay: Syncytium formation inhibition assay; assay type: cell-based; conditions: for Syncytium inhibitory activity ID50: 3-5 hours, 37° C.
[7] = biological target: T1, HIV envelope protein gp120 / T cells (UniProt P01730+P04578); assay: Binding of HIV envelope protein gp120 to T cells
T1 construct: CD4 native on cells

[8] = tested on: HIV-1 IIIb; assay: Acute infection of HIV-1 IIIb in CEM-SS cells; assay type: cell-based
[9] = Cytotoxicity in virus-uninfected MT-4 cells; assay type: cell-based; conditions: human; virus-uninfected MT-4 cells
[10] = Solubility; assay type: physicochemical
Excerpt: BU-4641V was isolated as a white amorphous powder. […] It gave positive responses to iodine vapor, sulfuric acid and ferric chloride tests, but negative responses to Rydon-Smith, Dragendorff and anthrone-sulfuric acid tests on silica gel TLC plate.

[11] = tested on: tubulin (3XMTP); conditions: cited from earlier work
[12] = tested on: MT-4 cells; assay: Cytotoxicity in virus-uninfected MT-4 cells; assay type: cell-based; conditions: human, mt-4 cells

Compound: CC1=CCC2(C)C(=O)C(O)=C(C(C)CO)C2CC=C(C)C(O)CCC(C)=CCC1 (stereo not drawn) [BU-4641V]
- promotion of tubulin polymerization (in words) [1]: promotes tubulin polymerization in a dose dependent manner; also recorded: reversibly stimulates polymerization of purified tubulin protein; also recorded: promote tubulin polymerization
- initial rate of tubulin polymerization (in words) ([1]; compared to taxol): slower initial rate
- reversal of tubulin polymerization by CaCl2 (in words) ([1]; treatment with CaCl2): can be reversed by treatment with CaCl2
- tubulin bundling around nuclei (in words) [2]: induces tubulin bundling around nuclei
- EC50 [3]: 0.78 µg/mL (≈ 1.94 µM)
- activity against HTLV-III (in words) ([3]; compared with dextran sulfate): more active than dextran sulfate against HTLV-III
- microtubule assembly by electron microscopy (in words) [4]: confirmed by electron microscopic observation of microtubule assembly
- CC50 [5]: 84 µM
- Syncytium inhibitory activity ID50 [6]: 0.46 µg/mL
- syncytium inhibitory activity (in words) ([6]; compared with dextran sulfate): more potent syncytium inhibitory activity; also recorded: stronger syncytium inhibitory property than that of dextran sulfate
- binding of HIV envelope protein gp120 to T cells [7]: does not affect the binding of HIV envelope protein gp120 to T cells
- blocking of acute HIV-1 IIIb infection (in words) [8]: only partially blocks the acute infection of HIV-1 IIIb
- pIC50 ([8]; acute infection of HIV-1 IIIb): 5.00
- CC50 [9]: 37.8 µg/mL (≈ 93.9 µM)
- solubility [10]: soluble in dimethyl sulfoxide, methanol, methylene chloride, ethyl acetate and alkaline water (such as 0.1 N NaOH); also recorded: insoluble in hexane and water

Compound: Nc1nc2c(ncn2[C@@H]2O[C@H](COP(=O)(O)OP(=O)(O)OP(=O)(O)O)[C@@H](O)[C@H]2O)c(=O)[nH]1 [GTP]
- promotion of tubulin polymerization (in words), known ([11]; GTP): known to reversibly promote tubulin polymerization; also recorded: only active on tubulin in the presence of microtubule associated proteins (MAPS)

Compound: CC(=O)O[C@H]1C(=O)[C@@]2(C)[C@H]([C@H](OC(=O)c3ccccc3)[C@]3(O)C[C@H](OC(=O)[C@H](O)[C@@H](NC(=O)c4ccccc4)c4ccccc4)C(C)=C1C3(C)C)[C@]1(OC(C)=O)CO[C@@H]1C[C@@H]2O [Taxol, reference compound]
- tubulin bundling around nuclei (in words) [2]: induces tubulin bundling around nuclei
- promotion of tubulin polymerization (in words), known ([11]; taxol): promote tubulin polymerization

Compound: Dextran sulfate [reference compound]
- EC50 [3]: 1.4 µg/mL
- Syncytium inhibitory activity ID50 [6]: 12.0 µg/mL
- CC50 [12]: > 1000 µg/mL
